Several values for one entry are separate records, joined by “and”; a condition that tells them apart may be missing. Equal values may be shown once.
Key:
IFNAR1 mRNA = assay: mRNA synthesis of interferon receptor subunit IFNAR1, Real Time PCR in A-549 cells; format: cell-based; conditions: 100 ng/mL, 16 hours after the treatment (FIG. 1)
Procedure: (§1) A continuous cell line A-549 was treated with glutaryl histamine at a concentration of 100 ng/mL. […] The RNAs were isolated by using RNEASY® Kit (Qiagen). The RNA preparation was treated with DNAase (RNase-free DNaseI (Ambion). Reverse transcription was performed by using THERMOSCRIPT™ RT-PCR System (Invitrogen). Quantitative PCR was carried out with the primers: […]

IFNAR2 mRNA = assay: mRNA synthesis of interferon receptor subunit IFNAR2, Real Time PCR in A-549 cells; format: cell-based; conditions: 100 ng/mL, 16 hours after the treatment (FIG. 1)
Procedure: as §1

IFNAR1 = assay: Density of interferon receptor subunit IFNAR1 on the surface of primary human macrophages (antibody staining, optical density); format: cell-based; conditions: primary human macrophages, 0.1, 1.0, 10 or 100 ng/mL, 24 hours (FIG. 2)
Procedure: (§2) A 10-day primary culture of human macrophages in 96-well plates was incubated for 24 hours in the presence of glutaryl histamine at concentrations: 0.1, 1.0, 10 or 100 ng/mL or without it. […] The preparation was visualized by staining with horseradish peroxidase-labeled secondary antibodies and adding a substrate. Optical density was measured using an ELISA spectrophotometer.

IFNAR2 = assay: Density of interferon receptor subunit IFNAR2 on the surface of primary human macrophages (antibody staining, optical density); format: cell-based; conditions: primary human macrophages, 0.1, 1.0, 10 or 100 ng/mL, 24 hours (FIG. 2)
Procedure: as §2

protein MxA = assay: Cell sensitivity to interferon: MxA protein immunoblot in A-549 cells; format: cell-based; conditions: for synthesis of MxA protein: glutaryl histamine 100 ng/mL plus 1 IU interferon-alpha
Excerpt: Cell lysates were undergone to the procedure of immunoblot analysis (western blotting) by using monoclonal antibodies against to protein MxA (sc-50509, Santa Cruz Biotechnology) to stain membranes by a chemiluminescence method using a substrate (chemiluminescent reagent SUPER SIGNAL® West Femto Chemiluminescent Substrate (Thermo Fisher Scientific)).

[1] = test system: herpes simplex virus HSV-1/CL; assay: Murine model of herpes meningoencephalitis, HSV-1/CL; format: in vivo; conditions: mice
Procedure: (§3) Mice were intracerebrally infected with herpes simplex virus HSV-1/CL and HSV-2/VN in a dose of 30 μl comprising 10 LD50.
(§4) A therapeutic effect of glutaryl histamine was studied by once-daily oral administration of 200 μl of the drug to the infected mice at a dose of 30 mg/kg 24, 48, 72, 96, and 120 hours after infection with the virus. Mice of the control group were administered placebo under the same conditions ([…] of a physiological solution). The animals were monitored for 14 days after infection, and fatal cases among mice from herpes meningocephalitis were registered in the treated and control groups. Activity of the drug was evaluated by comparing mortality rates of animals treated with glutaryl histamine relative to animals of the control group. A reduction in the mortality rate of the treated animals relative to the control was expressed in percentage.

[2] = test system: herpes simplex virus HSV-2/VN; assay: Murine model of herpes meningoencephalitis, HSV-2/VN; format: in vivo; conditions: mice
Procedure: as §3, §4

[3] = Toxic reactions and side effects on administration

## O=C(O)CCCC(=O)NCCc1c[nH]cn1 [glutaryl histamine]
IFNAR1 mRNA
  increase in the mRNA synthesis of subunit IFNAR1: at least in a two-folded increase
IFNAR2 mRNA
  increase in the amount of the mRNA of subunit IFNAR2: three-fold increase
IFNAR1
  density of IFNAR1 on the cell surface (signal in antibody staining): noticeably increased level of the signal
IFNAR2
  density of IFNAR2 on the cell surface (signal in antibody staining): noticeably increased level of the signal
Protein MxA; 8 hours (line 5, FIG. 3)
  synthesis of MxA protein: increased synthesis
Protein MxA; 24 hours (line 6, FIG. 3)
  synthesis of MxA protein: increased synthesis
Protein MxA; glutaryl histamine 100 ng/mL, not treated with interferon (lines 1, 2, 3, FIG. 3)
  accumulation of MxA protein: did not cause the accumulation
[1]; HSV-1 strain CL intracerebral 10 LD50, oral once daily 24-120 h after infection, 14 days monitoring, control 95.0
  Mortality rate, %: 65%
[1]; HSV-1 strain CL, 14 days monitoring, control 4.8 ± 3.1
  Life expectancy, days M ± σ: 8.1 days and 8.1 ± 4.9 days
[1]; HSV-1 strain CL, reduction in mortality relative to control
  Protection index, %: 31.6%
[2]; HSV-2, 14 days monitoring, control 6.1 ± 4.3
  Life expectancy, days M ± σ: 10.2 days and 10.2 ± 4.8 days
[2]; HSV-2, reduction in mortality relative to control
  Protection index, %: 47.1%
[2]; HSV-2 intracerebral 10 LD50, oral once daily 24-120 h after infection, 14 days monitoring, control 85.0
  Mortality rate, %: 45%
[3]; accompanying the therapeutic effect
  toxic reactions and other side effects: not accompanied by toxic reactions and other side effects
[3]; long-term administration in therapeutic doses or doses greater by an order of magnitude
  adverse side effects: has not demonstrated adverse side effects

Source: US9730915B2 (OBSCHESTVO S OGRANICHENNOI OTVETSTVENNOSTIYU …, priority 2013, dated 2017)
